System in one assay: not listed separately
Put plainly: DRUGMATRIX: Phorbol Ester radioligand binding (ligand: [3H] PDBu). The format is cell membranes, Mus musculus, ICR, Brain, Membrane. Conditions: Not Active = under 50% inhibition at 10 µM.
Estrogen receptor beta, sequence (Q92731 whole entry): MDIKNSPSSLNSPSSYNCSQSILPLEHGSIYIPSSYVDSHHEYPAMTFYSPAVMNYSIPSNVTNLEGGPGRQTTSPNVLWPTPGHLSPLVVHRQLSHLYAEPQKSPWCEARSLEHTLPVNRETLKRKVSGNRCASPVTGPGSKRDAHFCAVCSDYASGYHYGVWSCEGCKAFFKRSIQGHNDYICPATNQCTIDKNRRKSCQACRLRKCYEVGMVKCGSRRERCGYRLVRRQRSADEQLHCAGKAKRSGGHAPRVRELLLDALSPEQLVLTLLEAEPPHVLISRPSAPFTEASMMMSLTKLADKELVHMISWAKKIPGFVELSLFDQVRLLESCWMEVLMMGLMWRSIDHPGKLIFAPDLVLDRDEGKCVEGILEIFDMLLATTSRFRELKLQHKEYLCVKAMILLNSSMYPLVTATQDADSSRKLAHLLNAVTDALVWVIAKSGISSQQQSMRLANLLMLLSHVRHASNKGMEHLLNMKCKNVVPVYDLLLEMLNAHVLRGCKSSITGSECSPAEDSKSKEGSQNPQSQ
Insulin receptor, sequence (P15127 27-759 limits assumed): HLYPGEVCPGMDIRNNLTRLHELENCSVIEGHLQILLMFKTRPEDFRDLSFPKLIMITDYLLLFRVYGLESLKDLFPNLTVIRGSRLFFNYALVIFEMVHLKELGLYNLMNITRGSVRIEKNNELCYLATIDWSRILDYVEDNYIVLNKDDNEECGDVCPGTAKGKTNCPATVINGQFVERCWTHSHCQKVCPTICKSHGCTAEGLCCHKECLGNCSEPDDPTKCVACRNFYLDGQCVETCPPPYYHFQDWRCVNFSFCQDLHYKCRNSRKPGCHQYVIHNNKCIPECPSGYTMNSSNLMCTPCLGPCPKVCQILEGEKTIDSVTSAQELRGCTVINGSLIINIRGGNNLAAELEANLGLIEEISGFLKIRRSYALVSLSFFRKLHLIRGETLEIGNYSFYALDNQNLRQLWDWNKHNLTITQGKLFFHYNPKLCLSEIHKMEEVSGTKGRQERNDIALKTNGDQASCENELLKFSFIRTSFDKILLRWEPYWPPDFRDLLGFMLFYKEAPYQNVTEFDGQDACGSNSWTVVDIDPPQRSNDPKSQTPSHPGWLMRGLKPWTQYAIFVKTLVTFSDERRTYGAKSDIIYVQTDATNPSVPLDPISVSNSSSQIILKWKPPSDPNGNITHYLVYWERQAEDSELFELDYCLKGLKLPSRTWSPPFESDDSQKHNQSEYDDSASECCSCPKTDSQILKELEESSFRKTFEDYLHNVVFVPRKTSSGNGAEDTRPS
Insulin receptor, sequence (P15127 764-1383 limits assumed): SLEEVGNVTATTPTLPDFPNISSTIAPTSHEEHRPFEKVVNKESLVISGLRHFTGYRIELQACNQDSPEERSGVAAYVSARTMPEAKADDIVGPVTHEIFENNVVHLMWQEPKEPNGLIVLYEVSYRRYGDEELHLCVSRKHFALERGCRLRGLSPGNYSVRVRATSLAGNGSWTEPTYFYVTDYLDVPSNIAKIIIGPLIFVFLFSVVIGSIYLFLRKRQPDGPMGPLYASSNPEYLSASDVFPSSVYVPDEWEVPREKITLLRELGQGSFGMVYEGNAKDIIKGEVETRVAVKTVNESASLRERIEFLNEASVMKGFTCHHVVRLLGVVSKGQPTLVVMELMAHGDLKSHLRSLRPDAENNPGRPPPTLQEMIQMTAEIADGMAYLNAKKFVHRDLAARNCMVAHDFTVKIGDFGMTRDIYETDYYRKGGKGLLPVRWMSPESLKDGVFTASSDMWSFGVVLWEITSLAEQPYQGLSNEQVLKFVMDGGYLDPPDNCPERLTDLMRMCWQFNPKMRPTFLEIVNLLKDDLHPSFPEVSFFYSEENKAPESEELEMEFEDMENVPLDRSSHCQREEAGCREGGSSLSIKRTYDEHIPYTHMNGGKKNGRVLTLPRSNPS
On to `CN(C)[C@@H]1C(O)=C(C(N)=O)C(=O)[C@@]2(O)C(O)=C3C(=O)c4c(O)cccc4[C@@](C)(O)[C@H]3[C@H](O)[C@@H]12` [OXYTETRACYCLINE], for which the IC50 result is “Not Active” and the Ki entry was “Not Active”.
Take `COc1c(N2CCNC(C)C2)c(F)cc2c(=O)c(C(=O)O)cn(C3CC3)c12` (centres undefined) [GATIFLOXACIN]: the IC50 result is “Not Active” and the Ki entry is “Not Active”.

A further assay addresses T1, Neuropeptide Y receptor type 1 (Homo sapiens, UniProt P25929).
T1 sequence (P25929 whole entry): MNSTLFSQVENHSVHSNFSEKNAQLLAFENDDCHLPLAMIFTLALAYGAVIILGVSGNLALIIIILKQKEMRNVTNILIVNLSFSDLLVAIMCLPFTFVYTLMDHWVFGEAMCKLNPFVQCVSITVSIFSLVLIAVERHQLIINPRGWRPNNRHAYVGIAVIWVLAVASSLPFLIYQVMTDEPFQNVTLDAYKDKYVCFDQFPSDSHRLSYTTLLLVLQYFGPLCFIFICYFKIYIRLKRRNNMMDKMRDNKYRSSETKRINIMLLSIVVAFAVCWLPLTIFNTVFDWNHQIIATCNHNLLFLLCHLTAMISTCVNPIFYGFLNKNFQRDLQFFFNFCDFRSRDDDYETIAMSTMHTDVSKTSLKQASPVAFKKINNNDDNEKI
Assay: not given
The format is cell membranes, Membrane. As to conditions: sk-n-mc.
For the compound `CN(C)[C@@H]1C(O)=C(C(N)=O)C(=O)[C@@]2(O)C(O)=C3C(=O)c4c(O)cccc4[C@@](C)(O)[C@H]3[C@H](O)[C@@H]12` [OXYTETRACYCLINE], the IC50 entry is “Not Active”.
Same read-out and setting: as for `COc1c(N2CCNC(C)C2)c(F)cc2c(=O)c(C(=O)O)cn(C3CC3)c12` (centres undefined) [GATIFLOXACIN], the entry is “Not Active”.

Another assay addresses Estrogen receptor beta (Homo sapiens, UniProt Q92731).
Assay: not given
As to conditions: sf9.
On to `CN(C)[C@@H]1C(O)=C(C(N)=O)C(=O)[C@@]2(O)C(O)=C3C(=O)c4c(O)cccc4[C@@](C)(O)[C@H]3[C@H](O)[C@@H]12` [OXYTETRACYCLINE], for which the IC50 result is recorded as “Not Active”.
On the same count and under the same terms, the value for `COc1c(N2CCNC(C)C2)c(F)cc2c(=O)c(C(=O)O)cn(C3CC3)c12` (centres undefined) [GATIFLOXACIN] was “Not Active”.

System in another assay: not listed separately
Kind of assay: DRUGMATRIX: ATPase, Na+/K+ enzyme inhibition (substrate: ATP). As to conditions: Not Active = under 50% inhibition at 10 µM. It is filed as tissue-based, Sus scrofa, Heart.
In the case of `CN(C)[C@@H]1C(O)=C(C(N)=O)C(=O)[C@@]2(O)C(O)=C3C(=O)c4c(O)cccc4[C@@](C)(O)[C@H]3[C@H](O)[C@@H]12` [OXYTETRACYCLINE], the IC50 entry is reported as “Not Active” and the Ki entry is listed as “Not Active”.
Consider `COc1c(N2CCNC(C)C2)c(F)cc2c(=O)c(C(=O)O)cn(C3CC3)c12` (centres undefined) [GATIFLOXACIN], for which the IC50 entry was “Not Active” and the Ki result is “Not Active”.

A further assay deals with C-C chemokine receptor type 2 (Homo sapiens, UniProt P41597).
C-C chemokine receptor type 2, sequence (P41597 whole entry): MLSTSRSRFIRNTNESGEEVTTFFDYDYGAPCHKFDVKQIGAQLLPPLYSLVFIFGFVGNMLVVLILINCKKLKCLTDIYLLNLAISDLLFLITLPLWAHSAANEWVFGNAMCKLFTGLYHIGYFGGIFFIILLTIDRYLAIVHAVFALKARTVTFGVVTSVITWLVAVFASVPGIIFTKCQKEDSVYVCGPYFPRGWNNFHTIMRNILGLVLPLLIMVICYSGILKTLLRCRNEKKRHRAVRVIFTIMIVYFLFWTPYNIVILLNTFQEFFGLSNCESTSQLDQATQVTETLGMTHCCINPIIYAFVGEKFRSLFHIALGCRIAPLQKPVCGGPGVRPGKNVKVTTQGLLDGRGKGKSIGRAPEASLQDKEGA
Assay: not given
The format is cell membranes, CHO-K1, Membrane. Conditions: cho-k1.
Turning to `CN(C)[C@@H]1C(O)=C(C(N)=O)C(=O)[C@@]2(O)C(O)=C3C(=O)c4c(O)cccc4[C@@](C)(O)[C@H]3[C@H](O)[C@@H]12` [OXYTETRACYCLINE], the IC50 result was “Not Active”.
Still for that read-out and setting: as for `COc1c(N2CCNC(C)C2)c(F)cc2c(=O)c(C(=O)O)cn(C3CC3)c12` (centres undefined) [GATIFLOXACIN], the entry is “Not Active”.

The target of the next assay is cGMP-specific 3',5'-cyclic phosphodiesterase (Homo sapiens, UniProt O76074). Put plainly: DRUGMATRIX: Phosphodiesterase PDE5 enzyme inhibition (substrate: [3H]cGMP + cGMP). It is filed as tissue-based, Platelet. Conditions: platelet; Not Active = under 50% inhibition at 10 µM.
Consider `CN(C)[C@@H]1C(O)=C(C(N)=O)C(=O)[C@@]2(O)C(O)=C3C(=O)c4c(O)cccc4[C@@](C)(O)[C@H]3[C@H](O)[C@@H]12` [OXYTETRACYCLINE], for which the IC50 result is reported as “Not Active”.
The same measure, in the same setting: as for `COc1c(N2CCNC(C)C2)c(F)cc2c(=O)c(C(=O)O)cn(C3CC3)c12` (centres undefined) [GATIFLOXACIN], the entry is “Not Active”.

Another assay has as its target T2, C-C chemokine receptor type 4 (Homo sapiens, UniProt P51679). Note: in other assays of this panel Not Active means under 50% inhibition at 10 µM.
T2 sequence (P51679 whole entry): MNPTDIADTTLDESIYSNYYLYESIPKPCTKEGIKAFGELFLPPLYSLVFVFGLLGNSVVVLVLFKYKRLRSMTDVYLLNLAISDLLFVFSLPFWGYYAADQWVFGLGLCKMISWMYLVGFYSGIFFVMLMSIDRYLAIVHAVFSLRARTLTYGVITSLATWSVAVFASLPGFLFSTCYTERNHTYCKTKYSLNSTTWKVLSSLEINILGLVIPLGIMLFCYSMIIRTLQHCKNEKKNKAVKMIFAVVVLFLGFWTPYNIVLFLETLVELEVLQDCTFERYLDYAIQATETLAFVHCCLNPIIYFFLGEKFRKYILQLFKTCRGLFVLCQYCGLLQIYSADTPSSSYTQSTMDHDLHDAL
Assay: not given
It is filed as cell membranes, Membrane. As to conditions: chem-1.
In the case of `CN(C)[C@@H]1C(O)=C(C(N)=O)C(=O)[C@@]2(O)C(O)=C3C(=O)c4c(O)cccc4[C@@](C)(O)[C@H]3[C@H](O)[C@@H]12` [OXYTETRACYCLINE], the IC50 entry is given as “Not Active”.
Same read-out and setting: as for `COc1c(N2CCNC(C)C2)c(F)cc2c(=O)c(C(=O)O)cn(C3CC3)c12` (centres undefined) [GATIFLOXACIN], the entry is “Not Active”.

System in the next assay: not listed separately
Kind of assay: DRUGMATRIX: Glutamate, AMPA radioligand binding (ligand: [3H] AMPA). Conditions: Not Active = under 50% inhibition at 10 µM. It is filed as cell membranes, Rattus norvegicus, Wistar, Cerebral cortex, Membrane.
Take `CN(C)[C@@H]1C(O)=C(C(N)=O)C(=O)[C@@]2(O)C(O)=C3C(=O)c4c(O)cccc4[C@@](C)(O)[C@H]3[C@H](O)[C@@H]12` [OXYTETRACYCLINE]: the IC50 result was “Not Active” and the Ki entry is reported as “Not Active”.
`COc1c(N2CCNC(C)C2)c(F)cc2c(=O)c(C(=O)O)cn(C3CC3)c12` (centres undefined) [GATIFLOXACIN]: the IC50 result is on record as “Not Active” and the Ki entry was “Not Active”.

Another assay deals with T3, Nitric oxide synthase, inducible (Mus musculus, UniProt P29477).
T3 sequence (P29477 whole entry): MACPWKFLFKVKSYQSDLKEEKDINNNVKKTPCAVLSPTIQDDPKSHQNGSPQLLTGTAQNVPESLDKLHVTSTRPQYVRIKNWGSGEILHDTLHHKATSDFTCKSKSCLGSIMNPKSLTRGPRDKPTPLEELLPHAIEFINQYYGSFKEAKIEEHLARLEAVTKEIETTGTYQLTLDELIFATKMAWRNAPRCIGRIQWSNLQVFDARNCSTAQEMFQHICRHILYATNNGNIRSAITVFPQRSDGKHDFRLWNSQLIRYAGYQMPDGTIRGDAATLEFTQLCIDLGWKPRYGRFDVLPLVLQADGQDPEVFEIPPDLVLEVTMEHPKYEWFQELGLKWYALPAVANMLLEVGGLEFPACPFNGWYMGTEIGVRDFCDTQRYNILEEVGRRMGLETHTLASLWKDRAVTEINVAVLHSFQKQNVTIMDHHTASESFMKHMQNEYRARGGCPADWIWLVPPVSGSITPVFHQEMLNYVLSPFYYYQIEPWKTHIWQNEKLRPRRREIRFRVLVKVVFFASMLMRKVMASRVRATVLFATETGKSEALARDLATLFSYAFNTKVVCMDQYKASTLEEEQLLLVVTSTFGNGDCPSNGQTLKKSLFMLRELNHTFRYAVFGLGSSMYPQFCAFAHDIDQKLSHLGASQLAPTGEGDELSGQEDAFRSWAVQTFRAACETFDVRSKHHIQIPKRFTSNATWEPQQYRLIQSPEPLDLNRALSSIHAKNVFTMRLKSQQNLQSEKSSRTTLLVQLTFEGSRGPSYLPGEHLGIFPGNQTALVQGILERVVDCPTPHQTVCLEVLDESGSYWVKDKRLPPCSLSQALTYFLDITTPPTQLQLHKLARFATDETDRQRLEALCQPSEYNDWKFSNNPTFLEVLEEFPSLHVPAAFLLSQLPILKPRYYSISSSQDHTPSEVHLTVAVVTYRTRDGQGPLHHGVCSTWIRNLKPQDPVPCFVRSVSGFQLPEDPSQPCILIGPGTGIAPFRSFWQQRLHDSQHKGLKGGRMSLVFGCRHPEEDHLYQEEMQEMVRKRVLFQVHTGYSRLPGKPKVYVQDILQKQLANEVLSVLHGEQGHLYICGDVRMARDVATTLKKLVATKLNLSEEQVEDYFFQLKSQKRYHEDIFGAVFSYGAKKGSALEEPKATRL
Assay: not given
On the set-up: species or system Escherichia coli.
Settings: not given
As to `CN(C)[C@@H]1C(O)=C(C(N)=O)C(=O)[C@@]2(O)C(O)=C3C(=O)c4c(O)cccc4[C@@](C)(O)[C@H]3[C@H](O)[C@@H]12` [OXYTETRACYCLINE], the IC50 entry is on record as “Not Active”.
As to `COc1c(N2CCNC(C)C2)c(F)cc2c(=O)c(C(=O)O)cn(C3CC3)c12` (centres undefined) [GATIFLOXACIN], the IC50 entry is listed as “Not Active”.

The next assay has as its target Insulin receptor (Rattus norvegicus, UniProt P15127). Note: in other assays of this panel Not Active means under 50% inhibition at 10 µM.
Assay: not given
The format is cell membranes, Wistar, Liver, Membrane.
Settings: not given
With `CN(C)[C@@H]1C(O)=C(C(N)=O)C(=O)[C@@]2(O)C(O)=C3C(=O)c4c(O)cccc4[C@@](C)(O)[C@H]3[C@H](O)[C@@H]12` [OXYTETRACYCLINE], the IC50 entry is recorded as “Not Active”.
Consider `COc1c(N2CCNC(C)C2)c(F)cc2c(=O)c(C(=O)O)cn(C3CC3)c12` (centres undefined) [GATIFLOXACIN], for which the IC50 result was “Not Active”.

The target of a further assay is T4, Neutrophil elastase (Homo sapiens, UniProt P08246).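 Note: inhibition of neutrophil elastase enzyme activity, measured with a p-nitroanilide-linked peptide substrate; in other assays of this panel Not Active means under 50% inhibition at 10 µM.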
T4 sequence (P08246 whole entry): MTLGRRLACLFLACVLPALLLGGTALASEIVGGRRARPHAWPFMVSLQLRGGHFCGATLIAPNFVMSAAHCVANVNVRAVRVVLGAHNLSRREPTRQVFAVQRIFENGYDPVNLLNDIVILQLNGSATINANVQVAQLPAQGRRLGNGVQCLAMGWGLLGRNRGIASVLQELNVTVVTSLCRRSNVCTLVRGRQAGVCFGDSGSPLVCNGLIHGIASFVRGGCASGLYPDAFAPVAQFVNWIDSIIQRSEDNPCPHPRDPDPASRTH
Assay: not given
It is filed as tissue-based.
Settings: not given
`CN(C)[C@@H]1C(O)=C(C(N)=O)C(=O)[C@@]2(O)C(O)=C3C(=O)c4c(O)cccc4[C@@](C)(O)[C@H]3[C@H](O)[C@@H]12` [OXYTETRACYCLINE]: the IC50 entry was “Not Active”.
The same measure, in the same setting: as for `COc1c(N2CCNC(C)C2)c(F)cc2c(=O)c(C(=O)O)cn(C3CC3)c12` (centres undefined) [GATIFLOXACIN], the entry is “Not Active”.

System in the next assay: not listed separately
Put plainly: DRUGMATRIX: Glutamate, Kainate radioligand binding (ligand: [3H] Kainic acid). The format is cell membranes, Rattus norvegicus, Wistar, Brain, Membrane. As to conditions: Not Active = under 50% inhibition at 10 µM.
In the case of `CN(C)[C@@H]1C(O)=C(C(N)=O)C(=O)[C@@]2(O)C(O)=C3C(=O)c4c(O)cccc4[C@@](C)(O)[C@H]3[C@H](O)[C@@H]12` [OXYTETRACYCLINE], the IC50 result is on record as “Not Active” and the Ki result is reported as “Not Active”.
For the compound `COc1c(N2CCNC(C)C2)c(F)cc2c(=O)c(C(=O)O)cn(C3CC3)c12` (centres undefined) [GATIFLOXACIN], the IC50 result was “Not Active” and the Ki entry is “Not Active”.

Another assay has as its target T5, Leukotriene C4 synthase (Cavia porcellus, UniProt A6XA80).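 Note: enzyme inhibition assay of leukotriene C4 synthase, using LTA4 as the substrate; in other assays of this panel Not Active means under 50% inhibition at 10 µM.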
T5 sequence (A6XA80 whole entry): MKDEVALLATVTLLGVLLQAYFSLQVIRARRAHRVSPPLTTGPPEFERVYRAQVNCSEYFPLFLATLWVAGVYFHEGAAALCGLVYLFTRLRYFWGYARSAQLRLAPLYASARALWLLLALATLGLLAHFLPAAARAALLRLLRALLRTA
Kind of assay: biochemical. The format is tissue-based, Lung.
Settings: not given
Regarding `CN(C)[C@@H]1C(O)=C(C(N)=O)C(=O)[C@@]2(O)C(O)=C3C(=O)c4c(O)cccc4[C@@](C)(O)[C@H]3[C@H](O)[C@@H]12` [OXYTETRACYCLINE], the IC50 entry is recorded as “Not Active”.
Regarding `COc1c(N2CCNC(C)C2)c(F)cc2c(=O)c(C(=O)O)cn(C3CC3)c12` (centres undefined) [GATIFLOXACIN], the IC50 result is reported as “Not Active”.

For the origin of these results see ChEMBL document CHEMBL1909046, “DrugMatrix in vitro pharmacology data”.
